Reference: US10131672B2, “Therapeutic or prophylactic agent for biliary diseases” (Toray Industries, Inc., priority 2010, dated 2018)
Where two headings read alike, the source gives them in different places.

Legend:
sphincter of Oddi [1] = experiment: Sphincter of Oddi perfusion pressure after intravenous administration to a dog (literature); format: in vivo
Procedure: Further, gabexate mesilate reduces the sphincter of Oddi perfusion pressure by 6.9 mmH2O (corresponds to 0.51 mmHg) or 10.6 mmH2O (corresponds to 0.78 mmHg) when it is intravenously administered to a dog at a dose of 1 mg/kg or 3 mg/kg, respectively (Yamasato T. et al., J Smooth Muscle Res., 27, 87 (1991). Since oxapium iodide is usually orally administered at a dose of 30 to 60 mg per adult per day dividedly in 3 times, and 100 mg of gabexate mesilate is usually dissolved in 500 mL of Ringer's solution and the resulting solution is administered by intravenous drip infusion at a rate of not more than 8 mL/minute, the above-described doses are considered to be equivalent to the clinical doses of those drugs.

sphincter of Oddi [2] = conditions: dog, intravenous, cited from earlier work
biliary tract = conditions: nalbuphine not statistically significant; butorphanol statistically significant; cited from earlier work
sphincter of Oddi [3] = conditions: literature reports; cited from earlier work
sphincter of Oddi [4] = experiment: Rabbit model for contraction of sphincter of Oddi (perfusion pressure in sphincter of Oddi); format: in vivo
Procedure: The method described in Wei J G et al., World J. Gastroenterol., 6, 102 (2000) was partially modified and used for measurement of a change in the perfusion pressure in sphincter of Oddi. The change in the perfusion pressure reflects the motility of a contractive change of sphincter of Oddi.
Male NZW rabbits (Japan SLC) which had body weights of 2.0 to 2.5 kg upon delivery were fasted from the evening of the day before the experiment. The experiment was carried out under anesthesia with pentobarbital, with artificial ventilation. Each rabbit was immobilized in the supine position and subjected to abdominal incision to expose the periduodenal area and the common bile duct. A small incision was made in the common bile duct, and a cannula was inserted into the common bile duct toward the duodenum side, followed by indwelling its tip in sphincter of Oddi (sphincter ampullae). For biliary excretion, another cannula was inserted into the bile duct toward the gallbladder side and immobilized. From the other end of the cannula whose tip was indwelled in the sphincter of Oddi, physiological saline was continuously injected at a flow rate of 6 mL/hour to allow perfusion in the sphincter of Oddi. By recording the perfusion pressure with a blood pressure monitoring transducer (DX-300, Nihon Kohden Corporation), the contraction reaction of sphincter of Oddi was measured.
To the rabbit, 5% aqueous mannitol solution, which is the vehicle for the Compound 1 solution, was administered via the jugular vein. Further, not less than 30 minutes after the administration of the vehicle, Compound 1 was administered to the same individual at a dose of 0.2 μg/kg via the jugular vein. The administration volume of the vehicle and Compound 1 was 1 mL/kg, and the administration was carried out for 60 seconds.
Thus, in the Compound 1-administered group, the rate of change in the maximum perfusion pressure was lower compared to the vehicle-administered group, and this difference was significant (*p<0.05, paired t-test).

sphincter of Oddi [5] = conditions: animal experiments, high doses; cited from earlier work

CCOC(=O)c1ccc(OC(=O)CCCCCNC(=N)N)cc1 [gabexate mesilate]
reduction of the sphincter of Oddi perfusion pressure (converted) (sphincter of Oddi [1]; 1 mg/kg): 0.51 mmHg | reduction of the sphincter of Oddi perfusion pressure (converted) (sphincter of Oddi [1]; 3 mg/kg): 0.78 mmHg | reduction of the sphincter of Oddi perfusion pressure (sphincter of Oddi [2]; 1 mg/kg (Yamasato T. et al. 1991)): 6.9 mmH2O | reduction of the sphincter of Oddi perfusion pressure (sphincter of Oddi [2]; 3 mg/kg (Yamasato T. et al. 1991)): 10.6 mmH2O

C[N+]1(CC2COC(c3ccccc3)(C3CCCCC3)O2)CCCCC1 (stereo not drawn) [Oxapium iodide]
reduction of the sphincter of Oddi perfusion pressure (converted) (sphincter of Oddi [1]; 0.3 mg/kg): 0.74 mmHg | reduction of the sphincter of Oddi perfusion pressure (sphincter of Oddi [2]; 0.3 mg/kg (Tamasawa Y. et al. 1972)): about 10 mmH2O

Oc1ccc2c(c1)[C@@]13CCCC[C@@]1(O)[C@@H](C2)N(CC1CCC1)CC3 [butorphanol]
increase of the inner pressure of biliary tract (biliary tract): 12%

methionine enkephalin
action on contraction of sphincter of Oddi (sphincter of Oddi [3]): cause transient contraction of sphincter of Oddi, followed by showing a continuous contraction inhibition action

CN(C(=O)/C=C/c1ccoc1)[C@@H]1CC[C@@]2(O)[C@H]3Cc4ccc(O)c5c4[C@@]2(CCN3CC2CC2)[C@H]1O5.Cl [Compound 1, (−)-17-(cyclopropylmethyl)-3,14β-dihydroxy-4,5α-epoxy-6β-[N-methyl-trans-3-(3-furyl)acrylamido]morphinan hydrochloride]
reduction of the actual value of the maximum perfusion pressure (sphincter of Oddi [4]; 0.2 μg/kg intravenous to rabbits, on average): 0.95 mmHg | action on contraction of sphincter of Oddi (conclusion in words) (sphincter of Oddi [4]; 0.2 μg/kg intravenous, rabbit): has an action to inhibit contraction of sphincter of Oddi | rate of change in the maximum perfusion pressure (Oddi muscle contraction (Delta %)) (sphincter of Oddi [4]; 0.2 μg/kg intravenous, 3 minutes after vs 3 minutes before beginning of administration, mean, N=11, vehicle 99.81%, p<0.05): 93.32%

CN1CC[C@]2(C)C[C@@H](Cc3ccc(O)cc32)C1 [eptazocine]
contraction of sphincter of Oddi (sphincter of Oddi [5]): shows an action to cause contraction of sphincter of Oddi

COc1cccc(C2(O)CCCCC2CN(C)C)c1 (stereo not drawn) [tramadol]
contraction of sphincter of Oddi (sphincter of Oddi [5]): causes contraction of sphincter of Oddi

C=CCN1CC[C@]23c4c5ccc(O)c4O[C@H]2C(=O)CC[C@@]3(O)[C@H]1C5 [naloxone]
action on contraction of sphincter of Oddi (sphincter of Oddi [3]): have an action to inhibit contraction of sphincter of Oddi

Oc1ccc2c3c1O[C@H]1[C@@H](O)CC[C@@]4(O)[C@@H](C2)N(CC2CCC2)CC[C@]314 [nalbuphine]
action on contraction of sphincter of Oddi (sphincter of Oddi [3]): does not exert any action on contraction of sphincter of Oddi
